Test results published in US12383527B2, “Methods for treating triple negative breast cancer using salvianolic acid B” (HOWARD UNIVERSITY, priority 2018, dated 2025).

How the values were obtained:
ceramides = assay: Immunohistochemistry of ceramides in MDA tumor xenografts; type: in vivo, athymic nude mice; details: Sal-B 80 mg/kg three times per week; untreated control 2.3±0.7; P<0.05
Procedure: (§1) Human tumor xenografts in athymic nude mice. […] The animal protocol was approved by the Howard University Animal Care and Use Committee. Four-week-old female athymic nude mice (Nu/Nu) were obtained from Harlan Sprague Dawley (Indianapolis, IN). All mice were provided the Harlan Teklad #2018 Global 18% protein rodent diet and water ad libitum. Mice were housed in temperature-controlled rooms (74±2° F.) with a 12-hour alternating light-dark cycle. MDA cells (3×10^6/50 μL/spot) were subcutaneously injected into the both sides of lower back of mice using a 27-gauge needle. […]
Immunohistochemical staining was performed as described previously (Hao Y, et al., “Enforced expression of miR-101 inhibits prostate cancer cell growth by modulating the COX-2 pathway in vivo,” Cancer Prev Res (Phila), 2011; 4: 1073-1083). […] For the quantification, ten high-magnification (40×) fields were randomly selected from each slide of tumors and the positive cells were counted. The protein expression was expressed as the average number of positive cells per high magnification field. […]

MCF-7 cells = assay: Cell cycle profile analysis by flow cytometry; type: cell-based, human; details: Sal-B 50 μM and 100 μM, 24 hours
Procedure: (§2) Cell cycle profile analysis using flow cytometry and Western blot analysis. To understand the effects of Sal-B on the cell cycle of cancer cells, the cell cycle profile was analyzed using flow cytometry. The cells from both cell lines were treated with Sal-B (50 and 100 µM) or doxorubicin (0.1 and 1 μM) for 24 hours and then fixed in chilled 80% ethanol. The fixed cells were incubated in a solution containing 100 μg/mL RNase at 37° C. water bath for 45 minutes. Propidium iodide (final concentration of 50 μg/ml) was then added to the cells and incubated in a 37° C. water bath for another 15 minutes. The analysis was carried out with a FACStar flow cytometer (Becton Dickinson, San Jose, CA). Ten thousand cells per sample were analyzed, cach sample was done in triplicate and the experiment was repeated three times.

MDA-MB-231 cells [1] = assay: Cell cycle profile analysis by flow cytometry; type: cell-based, human; details: Sal-B 50 μM and 100 μM, 24 hours
Procedure: as §2

Bcl-xL = assay: Immunohistochemical staining of Bcl-xL in MDA tumor xenografts; type: in vivo, athymic nude mice; details: Sal-B 80 mg/kg three times per week; untreated tumors 11.8±3.0; P<0.05
Procedure: as §1
Immunohistochemical staining was performed as described previously (Hao Y, et al., “Enforced expression of miR-101 inhibits prostate cancer cell growth by modulating the COX-2 pathway in vivo,” Cancer Prev Res (Phila), 2011; 4: 1073-1083). […] For the quantification, ten high-magnification (40×) fields were randomly selected from each slide of tumors and the positive cells were counted. The protein expression was expressed as the average number of positive cells per high magnification field.

MDA-MB-231 cells [2] = assay: Colony formation assay; type: cell-based, human; details: colonies grown 10 days
Procedure: Colony formation assay. The inhibitory effect of Sal-B was further confirmed by colony formation assay. The colony formation assay was performed as described previously (Hao Y, et al., “Enforced expression of miR-101 inhibits prostate cancer cell growth by modulating the COX-2 pathway in vivo,” Cancer Prev Res (Phila). 2011; 4: 1073-1083). Briefly, MDA cells were seeded at a density of 300 cells per well in 6-well plates, cultured overnight, and then treated with Sal-B at different concentrations (1, 10, 20, 50, and 100 μM) for 24 hours. Following treatment, the old medium containing Sal-B was replaced with fresh drug-free media and the cells were allowed to grow for 10 days to permit colony formation from viable clonogenic cells. Colonies were stained with 0.1% trypan blue in 50% ethanol and were counted manually under microscopy with a grid printed on a transparent plastic sheet to keep track of colonies counted. The colonies containing more than 50 cells were considered to represent a viable clonogenic cell. The experiment was completed in triplicate for each treatment.

MDA tumor xenografts = assay: TUNEL assay of apoptotic cells in MDA tumor xenografts; type: in vivo, athymic nude mice; details: Sal-B 80 mg/kg three times per week; untreated tumors 3.1±1.8; P<0.05
Procedure: as §1
Apoptotic cells in MDA tumor xenografts were also analyzed by a terminal deoxynucleotidyl transferase-mediated dUTP nick end labeling (TUNEL) assay using the TdT-FragEL DNA Fragmentation Detection Kit (EMD Millipore, Burlington, MA) as previously described (Li H, et al., “Cellular uptake and anticancer activity of salvianolic acid B phospholipid complex loaded nanoparticles in head and neck cancer and precancer cells,” Colloids Surf B Biointerfaces. 2016; 147: 65-72). […]

O=C(/C=C/c1ccc(O)c2c1[C@H](C(=O)O[C@H](Cc1ccc(O)c(O)c1)C(=O)O)[C@@H](c1ccc(O)c(O)c1)O2)O[C@H](Cc1ccc(O)c(O)c1)C(=O)O [Sal-B, Salvianolic acid B]
ceramide levels in tumor xenografts (ceramide positive cells counted) (ceramides): 9.6±2.4 | changes in the cell cycle phases (MCF-7 cells): no significant changes | changes in the cell cycle phases (MDA-MB-231 cells [1]): no significant changes | expression of Bcl-xL in tumors (Bcl-xL): 1.3±0.4 positive cells per high magnif | colony formation capability relative to control cells (MDA-MB-231 cells [2]; Sal-B 1 μM for 24 hours): approximately 69% | colony formation capability (MDA-MB-231 cells [2]; Sal-B 100 μM for 24 hours): complete inhibition | number of apoptotic cells (TUNEL) (MDA tumor xenografts): 12.2±3.2
